Data published in PubChem BioAssay (NCI).
Where “and” joins values, the source holds several entries; their conditions need not be identical. Identical values can stand only once.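 Step 1: Grow cells in 96-well plates. Step 2: Expose to compound for 48 hours at 5 concentrations. Step 3: Interpolate endpoints linearly; if unreached, use highest concentration. The concentration for 50% growth inhibition is given as GI50. At the TGI there is no net growth.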

How the values were obtained:
Test in all cases: NCI anticancer screen, dose series, 48 h
DMS 114 small cell lung = tested on: DMS 114 small cell lung
XF 498 CNS = tested on: XF 498 CNS
SNB-78 CNS = tested on: SNB-78 CNS
M19-MEL melanoma = tested on: M19-MEL melanoma
HOP-18 NSCLC = tested on: HOP-18 NSCLC
KM20L2 colon = tested on: KM20L2 colon
DMS 273 small cell lung = tested on: DMS 273 small cell lung
PC-3 prostate = tested on: PC-3 prostate
NCI/ADR-RES ovarian = tested on: NCI/ADR-RES ovarian

SMILES: COc1ccc(NC(=O)C2=CC(=O)c3ccc(O)cc3C2=O)c(OC)c1
- TGI (DMS 114 small cell lung): > 100 µM
- TGI (XF 498 CNS): > 100 µM
- TGI (SNB-78 CNS): > 100 µM
- TGI (M19-MEL melanoma): > 100 µM
- TGI (HOP-18 NSCLC): > 100 µM
- TGI (KM20L2 colon): > 100 µM

SMILES: CC(C)=Cc1cc(C(=O)NCCNC(=O)c2cc(C=C(C)C)nc(NC#N)n2)nc(NC#N)n1
- TGI (DMS 114 small cell lung): > 100 µM
- TGI (XF 498 CNS): > 100 µM
- TGI (M19-MEL melanoma): > 100 µM
- TGI (HOP-18 NSCLC): > 100 µM
- TGI (KM20L2 colon): > 100 µM

SMILES: O=C1C(Cl)C(c2ccc([N+](=O)[O-])cc2)N1n1cnc2ccccc2c1=O (stereo not given)
- TGI (DMS 114 small cell lung): > 100 µM
- TGI (XF 498 CNS): > 100 µM
- TGI (SNB-78 CNS): 88.1 µM
- TGI (DMS 273 small cell lung): > 100 µM
- TGI (HOP-18 NSCLC): > 100 µM
- TGI (KM20L2 colon): > 100 µM

SMILES: O=c1sc(-c2nc3ccccc3[nH]2)c(/N=C/c2ccccc2)n1-c1ccccc1
- TGI (XF 498 CNS): 54.7 µM
- TGI (SNB-78 CNS): > 100 µM
- TGI (M19-MEL melanoma): > 100 µM
- TGI (DMS 273 small cell lung): > 100 µM
- TGI (HOP-18 NSCLC): > 100 µM

SMILES: COc1ccc(OC)c(-c2cc(=O)c3cc4c(cc3[nH]2)OCO4)c1
- TGI (DMS 114 small cell lung): 13.9 µM
- TGI (XF 498 CNS): 35.9 µM
- TGI (SNB-78 CNS): > 100 µM
- TGI (M19-MEL melanoma): > 100 µM
- TGI (DMS 273 small cell lung): 20.9 µM
- TGI (HOP-18 NSCLC): > 100 µM
- TGI (KM20L2 colon): 23.7 µM

SMILES: COc1cc([C@@H]2c3cc4c(cc3[C@@H](NC(=O)c3ccc(OC(C)=O)cc3)C3COC(=O)[C@@H]32)OCO4)cc(OC)c1O (stereo not given in full)
- TGI (DMS 114 small cell lung): 5.38 µM
- TGI (XF 498 CNS): 6.96 µM
- TGI (SNB-78 CNS): > 100 µM
- TGI (M19-MEL melanoma): 40.1 µM
- TGI (DMS 273 small cell lung): 12.4 µM
- TGI (HOP-18 NSCLC): > 100 µM
- TGI (KM20L2 colon): 12.7 µM

SMILES: O=C1C(=Cc2ccc([N+](=O)[O-])o2)C(=O)N(CCc2ccccc2)S(=O)(=O)N1CCc1ccccc1
- TGI (XF 498 CNS): 34.9 µM
- TGI (SNB-78 CNS): 94.9 µM
- TGI (M19-MEL melanoma): 31.7 µM
- TGI (DMS 273 small cell lung): > 100 µM
- TGI (HOP-18 NSCLC): > 100 µM
- TGI (KM20L2 colon): > 100 µM

SMILES: COC1C(C)OC(OC2CC(C)(O)Cc3cc4c(c(O)c32)C(=O)c2c(O)cc3c(c2C4=O)OC2OC3(C)C(O)C(N(C)C)C2O)C(OC)C1(C)OC (stereo not given)
- TGI (DMS 114 small cell lung): 0.0635 µM and 0.0446 µM
- GI50 (XF 498 CNS): 0.03 µM
- TGI (XF 498 CNS): 0.292 µM and 0.0483 µM
- TGI (PC-3 prostate): 0.00375 µM
- GI50 (SNB-78 CNS): 0.00657 µM and 0.0327 µM
- TGI (SNB-78 CNS): 1.78 µM and 2.57 µM
- GI50 (DMS 273 small cell lung): 0.0298 µM
- TGI (DMS 273 small cell lung): 0.557 µM and 0.137 µM
- GI50 (HOP-18 NSCLC): 0.157 µM
- TGI (HOP-18 NSCLC): 0.919 µM and 3.11 µM
- GI50 (KM20L2 colon): 0.0651 µM
- TGI (KM20L2 colon): 0.571 µM and 1.6 µM
- TGI (NCI/ADR-RES ovarian): 21.2 µM
